Results from US9950026B2, “Methods for reducing oxidative damage” (Cornell Research Foundation, Inc., priority 2004, dated 2018).
Where a SMILES comes first, the peptide text is derived from it. [ ]: non-standard residue; d: D form. Dmt = Cc1cc(O)cc(C)c1C[C@H](N)C(=O)O

Assays:
SH-SY5Y cells = test: Cell viability, MTS assay, cells treated with tBHP; assay type: cell-based, human; conditions: t-BHP 0.05-0.1 mM, 24 h
Protocol: Neuronal N2A and SH-SY5Y cells were plated in 96-well plate at a density of 1×10^4/well and allowed to grow for 2 days before treatment with t-butyl hydroperoxide (tBHP) (0.05-0.1 mM) with or without SS-31 (10^−12 M to 10^−9 M for 24 h. Cell death was assessed by a cell proliferation assay (MTS assay, Promega, Madison, Wis.).

[1] = test system: isolated guinea pig hearts; test: Isolated hearts, 18 h cold ischemia followed by warm reperfusion; conditions: 1 nM SS-31 in cardioplegic solution, 18 h at 4° C.
Protocol: Isolated guinea pig hearts were perfused in a retrograde manner in a Langendorff apparatus with a cardioplegic solution (St. Thomas solution) without or with SS-31 (1 nM) for 3 min. and then clamped and stored at 4° C. for 18 h. Subsequently, the hearts were remounted in the Langendorff apparatus and reperfused with Krebs-Henseleit solution at 34° C. for 90 min. Hearts were then rapidly fixed and paraffin-embedded.
(B) Immunohistochemical analysis of HNE-modified proteins in paraffin sections from guinea pig hearts stored without (a) or with (b) SS-31 (1 nM). (c) Background staining without primary antibody.
Apoptosis was assessed by the TUNEL stain (green) and nuclei are visualized by DAPI (blue).

SN-4741 cells = test: MPP+ toxicity, apoptosis by Hoechst 33342; assay type: cell-based; conditions: 50 μM MPP+, 1 nM SS-31, 48 h
Protocol: (A) SS-31 protects dopamine cells against MPP^+ toxicity. SN-4741 cells were treated with buffer, 50 μM MPP^+ or 50 μM MPP^+ and 1 nM SS-31, for 48 h, and the incidence of apoptosis was determined by fluorescent microscopy with Hoechst 33342.

N2A cells = test: Mitochondrial function, MTT assay, after tBHP; assay type: cell-based, murine
Protocol: FIG. 23A-23B. SS-31 protected against tBHP-induced […]. (A) SS-31 protected mitochondrial viability in N2A cells treated with tBHP for 24 h. Mitochondrial viability was evaluated using the MTT assay (*P<0.01 compared to untreated cells, *P<0.05, P<0.01 compared to tBHP alone). (B) SS-31 protected mitochondrial viability in SH-SY5Y cells treated with tBHP for […] (*P<0.01 compared to untreated cells; **P<0.01 compared to tBHP alone).
Only viable mitochondria containing NADPH dehydrogenase activity are capable of cleaving MTT to the formazan. A 50 μM tBHP induced 50% loss of mitochondrial function in N2A cells (FIG. 23A, […]) and 30% loss of mitochondrial function in SH-SY5Y cells (FIG. 23B, P<0.01). […] Treatment of N2A cells with SS-31 alone had no effect on mitochondrial function.

[2] = test system: G93A transgenic familial ALS mice; test: Motor performance by rotarod in ALS mice; assay type: in vivo; conditions: between day 100 and 130
[3] = test system: C57BL/6 mice subjected to MCAO; test: Infarct size, swelling and cerebral blood flow after MCAO; assay type: in vivo; conditions: for reduction in infarct volume: 2 mg/kg i.p., 3 days after ischemia
Protocol: FIG. 32A-32F. Effect of SS-31 peptide on ischemia-induced infarct size and swelling in C57BL/6 mice. Shown are representative serial sections (1.2 mm apart) stained with Cresyl Violet from mice subjected to 30 min (A) and 20 min (B) MCAO and treated with vehicle (Veh) or SS-31 (2 mg/kg body weight) immediately after reperfusion, 6 h, 24 h, and 48 h.
To address whether SS-31-induced attenuation in GSH depletion is associated with neuroprotection, mice were subjected to 30 or 20 min MCAO and then treated with vehicle or SS-31 (2 mg/kg, i.p.) upon reperfusion) and at 6 h, 24 h, 48 h after MCAO. Infarct volumes and hemispheric swelling were determined at 3 days after ischemia.

DBA/2 mice islets = test: Islets isolated from donor mice pre-treated with SS-31 (TMRM, yield, Annexin V/PI flow cytometry); assay type: in vivo
Protocol: FIG. 33A-33B. SS peptides penetrate islet cells, co-localize with mitochondria and preserve islet mitochondrial membrane potential. (A) Islet cell uptake of SS-31. DBA/2 islet cells were incubated with 1 nM of tritium labeled SS-31 and 1 μM unlabeled SS-31 at 37° C. for 1 h. Following incubation, radioactivity was measured in the medium and in cell lysates and the radioactive counts in the medium were subtracted from radioactive counts in the cell lysate and normalized to protein content. In four consecutive experiments, the mean±(SE) [^3H]SS-31 uptake was 70.2+/31 10.3 pmol/mg, of proteins (B)(i-iv) SS-31 preserves islet mitochondrial potential. DBA/2 mice were treated with SS-31 (3 mg/kg s.c. BID) or vehicle control 24 hours prior to pancreas harvest for islet isolation. SS-31 treated groups had 1 nM SS-31 added to the islet isolation reagents. Following isolation, TMRM uptake was evaluated using confocal laser scanning microscopy.
FIG. 34A-34D. SS-31 reduces islet cell apoptosis. DBA/2 mice were pre-treated (24 and 12-hours hours prior to pancreas harvest and islet isolation) with SS-31 (3 mg/kg, s.c., BID) or vehicle control. SS-31 (1 nM was added to reagents used for the isolation of islets from SS-31-treated mice. The islets were dissociated in to single cells with trypsin/EDTA and were stained with Annexin V-FITC (AnV) and propidium iodide (PI) and analyzed with the use of dual parameter low cytometry. (A) Percentage of cell undergoing early apoptosis (AnV+cells); P=0.03. (B) Percentage of cells undergoing late apoptosis/early necrosis (AnV+/PI+cells); P=0.03. (C) Percentage of necrotic cells (PI+cells); P=1.0 (D) Percentage of viable cells (AnV-/PI-cells); P=0.03. Data from individual pancreatic islet isolations and mean±SE are shown, N=number of separate islet isolations. Two-tailed P-values were calculated using Mann-Whitney t-test.
Mitochondrial depolarization and the release of cytochrome c into the cytoplasm are critical antecedent events to cell death. TMRM, a fluorescent cationic indicator is taken up into mitochondria in a potential dependent manner.
To investigate whether the SS-31 optimizes islet isolation and results in increased islet yield, islet donor mice were pre-treated with SS-31.

Q: How did the “concentration achieving complete protection against t-BHP” value (SH-SY5Y cells) turn out when `Cc1cc(O)cc(C)c1C[C@H](NC(=O)[C@H](N)CCCNC(=N)N)C(=O)N[C@@H](CCCCN)C(=O)N[C@@H](Cc1ccccc1)C(N)=O` [SS-31, D-Arg-2′6′-Dmt-Lys-Phe-NH2] (H-[dR][Dmt]KF-NH2; N-terminus assumed) was run?
A: 1 nM

Q: And the t-BHP-induced cytotoxicity (SH-SY5Y cells; concurrent treatment)?
A: dose-dependent reduction

Q: And the “apoptosis in endothelial cells and myocytes (TUNEL)” value [1]?
A: prevents apoptosis

Q: What about the coronary flow [1] of the same compound?
A: significantly improved

Q: And the “lipid peroxidation (HNE-modified proteins)” value [1]?
A: Reduces Lipid Peroxidation

Q: And the “number of apoptotic cells” value (SN-4741 cells)?
A: reduced the number of apoptotic cells

Q: And the “tBHP-induced mitochondrial toxicity/dysfunction (MTT)” value (N2A cells; tBHP 50-100 μM, 24 h)?
A: dose-dependently reduced

Q: And the “mitochondrial function, peptide alone” value (N2A cells; without tBHP)?
A: no effect

Q: What about the “motor performance (rotarod)” value [2] of the same compound?
A: significantly improved

Q: And the “reduction in infarct volume” value ([3]; 20 min ischemia)?
A: 30%

Q: What about the “reduction in infarct volume” value ([3]; 30 min ischemia) of the same compound?
A: 24%

Q: And the hemispheric swelling ([3]; both 30 and 20 min ischemic paradigms)?
A: significantly attenuated

Q: And the “uptake of TMRM by islets (mitochondrial potential)” value (DBA/2 mice islets; SS-31 3 mg/kg s.c. BID to donor, 1 nM in isolation reagents)?
A: greater uptake of TMRM

Q: And the “islet yield, mean±(SE)” value (DBA/2 mice islets; donor mice pre-treated with SS-31)?
A: 291±60 islets per pancreas

Q: What about the “islet cell viability (Annexin V-/PI- cells)” value (DBA/2 mice islets; donor mice treated with SS-31) of the same compound?
A: 62±3.5%

Q: What about the “late apoptosis/early necrosis (Annexin V+/PI+ cells)” value (DBA/2 mice islets; donor mice treated with SS-31) of the same compound?
A: 12.6±1.8%

Q: What about the “percentage of early apoptotic cells (Annexin V alone positive cells)” value (DBA/2 mice islets; donor mice treated with SS-31) of the same compound?
A: 5.5±1.0%

Q: What about the “percentage of necrotic cells (PI+ cells)” value (DBA/2 mice islets; donor mice treated with SS-31) of the same compound?
A: did not reduce
